Data reported in patent US10501514B2, “Cyclic galanin-analogs and uses thereof” (LanthioPep B.V., priority 2015, dated 2019).
“Also recorded” adds a separate entry of the source. Blank lines part the entries; values can stand above or below the molecule they belong to.

Assays:
[1] = test system: Galanin receptor (GalR1, GalR2); test: Galanin receptor activation assays, overall statements in words; format: cell-based; conditions: for preference for stimulating GalR2 (over GalR1), in words: GalR2 versus GalR1; for activity, in words: overall statement on galanin receptor activation
Experimental: (§1) The biological activity of the (lanthi)galanins was determined in CHO-K1 cell lines that express either the GalR1, or GalR2 receptor. Activity measurements were performed using commercial kits from DiscoverX for determining arrestin recruitment (GalR1, GalR2) and inhibition of cAMP synthesis (GalR1). In addition, HEK293 cell lines that express the GalR2 receptor have been used for methods from Molecular Probes to measure calcium efflux (GalR2).
(§2) Peptide was dissolved in 0.3% ammonia. Peptides were incubated o/n at 37° C. for the introduction of the lanthionine via base assisted sulfur extrusion of the disulfide bridged peptide. Different isomers could be isolated by HPLC applying the same method as was used as for the biologically produced peptides. Different isomers were purified and lyophilized. Dry peptides were dissolved in 100 mM phosphate buffer pH=7.6 and peptides were incubated o/n at 50° C. After HPLC purification peptides with a pE formation were selected and used in the different Galanin receptor activation assays.

[2] = target: T1, GalR2 (Homo sapiens, UniProt O43603); format: cell-based; conditions: for efficacy via GalR2 compared with GalWtb, in words: GalR2, Table 1 data
T1 construct: expressed in transfected cells; host or cells: HEK293
T1 sequence (O43603 1-387): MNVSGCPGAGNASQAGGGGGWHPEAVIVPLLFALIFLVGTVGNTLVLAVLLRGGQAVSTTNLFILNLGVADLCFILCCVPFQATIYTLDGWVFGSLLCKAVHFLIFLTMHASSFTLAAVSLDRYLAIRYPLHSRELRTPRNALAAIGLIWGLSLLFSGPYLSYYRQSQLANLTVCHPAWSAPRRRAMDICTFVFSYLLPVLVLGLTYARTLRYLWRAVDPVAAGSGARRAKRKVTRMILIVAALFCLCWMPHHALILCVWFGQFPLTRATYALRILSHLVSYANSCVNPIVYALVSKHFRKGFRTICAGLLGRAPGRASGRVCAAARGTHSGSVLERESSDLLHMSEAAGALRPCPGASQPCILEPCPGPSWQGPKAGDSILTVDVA
Experimental: (§3) ND indicates ‘not determined’.
Peptide was dissolved in 0.3% ammonia. […] Different isomers were purified and lyophilized.

[3] = target: T2, GalR1 (Homo sapiens, UniProt P47211); test: inhibition of cAMP synthesis in CHO-K1 cells expressing GalR1 (DiscoverX kit); format: cell-based; set-up: host or cells: CHO-K1; conditions: FIG. 3
T2 sequence (P47211 1-349): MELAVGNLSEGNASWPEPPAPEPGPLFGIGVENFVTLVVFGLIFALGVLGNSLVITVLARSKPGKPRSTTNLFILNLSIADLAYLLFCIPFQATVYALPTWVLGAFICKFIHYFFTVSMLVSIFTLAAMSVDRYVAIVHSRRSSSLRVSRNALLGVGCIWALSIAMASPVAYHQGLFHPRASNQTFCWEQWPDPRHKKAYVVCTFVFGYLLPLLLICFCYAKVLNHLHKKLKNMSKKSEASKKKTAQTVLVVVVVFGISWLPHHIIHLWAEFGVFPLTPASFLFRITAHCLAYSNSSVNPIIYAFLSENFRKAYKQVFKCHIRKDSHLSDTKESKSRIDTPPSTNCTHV
Experimental: as §1, §3
as §2, with “Different isomers could be isolated by HPLC applying the same method as was used as for the biologically produced peptides.” left out

[4] = target: T2, GalR1; conditions: FIG. 1
Experimental: as §1, §3
as §2, with “Different isomers could be isolated by HPLC applying the same method as was used as for the biologically produced peptides.” left out

SMILES: CC(C)C[C@H](NC(=O)[C@H](CC(C)C)NC(=O)[C@H](Cc1ccc(O)cc1)NC(=O)CNC(=O)[C@H](C)NC(=O)[C@H](C)NC(=O)[C@H](CC(N)=O)NC(=O)[C@H](CC(C)C)NC(=O)[C@H](CC(N)=O)NC(=O)[C@H](Cc1c[nH]c2ccccc12)NC(=O)[C@@H]1CCC(=O)N1)C(=O)N[C@@H](C)C(=O)N[C@H]1C(=O)N[C@@H](Cc2c[nH]cn2)C(=O)N[C@@H](C)C(=O)N[C@H](C(=O)NCC(=O)N[C@@H](CC(N)=O)C(=O)N[C@@H](Cc2c[nH]cn2)C(=O)N[C@@H](CCCNC(=N)N)C(=O)O)CS[C@H]1C [GalM50b]
preference for stimulating GalR2 (over GalR1), in words [1]: preference for stimulating GalR2

SMILES: CC(C)C[C@H](NC(=O)[C@H](CC(C)C)NC(=O)[C@H](Cc1ccc(O)cc1)NC(=O)CNC(=O)[C@H](C)NC(=O)[C@H](C)NC(=O)[C@H](CC(N)=O)NC(=O)[C@H](CC(N)=O)NC(=O)[C@H](CC(N)=O)NC(=O)[C@H](Cc1c[nH]c2ccccc12)NC(=O)CN)C(=O)NCC(=O)N[C@@H](C)C(=O)N[C@H]1C(=O)N[C@@H](C)C(=O)N[C@@H](C(C)C)C(=O)N[C@H](C(=O)N[C@@H](CC(N)=O)C(=O)N[C@@H](Cc2c[nH]cn2)C(=O)N[C@@H](CCCNC(=N)N)C(=O)O)CS[C@H]1C [GalM94]
efficacy via GalR2 compared with GalWtb, in words [2]: comparable efficacy via GalR2 like GalWtb

SMILES: CC(C)C[C@H](NC(=O)[C@H](CC(C)C)NC(=O)[C@H](Cc1ccc(O)cc1)NC(=O)CNC(=O)[C@H](C)NC(=O)[C@H](C)NC(=O)[C@H](CC(N)=O)NC(=O)[C@H](CC(C)C)NC(=O)[C@H](CC(N)=O)NC(=O)[C@H](Cc1c[nH]c2ccccc12)NC(=O)[C@@H]1CCC(=O)N1)C(=O)NCC(=O)N[C@@H](C)C(=O)N[C@H]1C(=O)N[C@@H](C)C(=O)N[C@@H](C(C)C)C(=O)N[C@H](C(=O)N[C@@H](CC(N)=O)C(=O)N[C@@H](Cc2c[nH]cn2)C(=O)N[C@@H](CCCNC(=N)N)C(=O)O)CS[C@H]1C [GalM54]
β-arrestin recruitment via GalR2, preference in words ([2]; FIG. 2): preferentially stimulates β-arrestin recruitment via GalR2 | preference for stimulating GalR2 (over GalR1), in words [1]: GalR2-specific; also recorded: preference for stimulating GalR2

SMILES: CC(C)C[C@H](NC(=O)[C@H](CC(C)C)NC(=O)[C@H](Cc1ccc(O)cc1)NC(=O)CNC(=O)[C@H](C)NC(=O)[C@H](C)NC(=O)[C@H](CC(N)=O)NC(=O)[C@H](CC(C)C)NC(=O)[C@H](CC(N)=O)NC(=O)[C@H](Cc1c[nH]c2ccccc12)NC(=O)CN)C(=O)NCC(=O)N[C@@H](C)C(=O)N[C@H]1C(=O)N[C@@H](C)C(=O)N[C@@H](C(C)C)C(=O)N[C@H](C(=O)N[C@@H](CC(N)=O)C(=O)N[C@@H](Cc2c[nH]cn2)C(=O)N[C@@H](CCCNC(=N)N)C(=O)O)CS[C@H]1C [GalM51]
cAMP production via GalR1, in words [3]: inhibit cAMP production via GalR1 | β-arrestin recruitment via GalR1, in words [4]: induced β-arrestin recruitment via GalR1

SMILES: CC(C)C[C@H](NC(=O)[C@H](CC(C)C)NC(=O)[C@H](Cc1ccc(O)cc1)NC(=O)CNC(=O)[C@H](C)NC(=O)[C@H](C)NC(=O)[C@H](CC(N)=O)NC(=O)[C@H](CC(C)C)NC(=O)[C@H](CC(N)=O)NC(=O)[C@H](Cc1c[nH]c2ccccc12)NC(=O)CN)C(=O)NCC(=O)N1CCC[C@H]1C(=O)N[C@@H](Cc1c[nH]cn1)C(=O)N[C@H]1C(=O)N[C@@H](C(C)C)C(=O)NCC(=O)N[C@H](C(=O)N[C@@H](Cc2c[nH]cn2)C(=O)N[C@@H](CCCNC(=N)N)C(=O)O)CS[C@H]1C [GalM52]
cAMP production via GalR1, in words [3]: inhibit cAMP production via GalR1

SMILES: CC(C)C[C@H](NC(=O)[C@H](CC(C)C)NC(=O)[C@H](Cc1ccc(O)cc1)NC(=O)CNC(=O)[C@H](C)NC(=O)[C@H](C)NC(=O)[C@H](CC(N)=O)NC(=O)[C@@H](NC(=O)[C@H](CC(N)=O)NC(=O)[C@H](Cc1c[nH]c2ccccc12)NC(=O)CN)C(C)C)C(=O)NCC(=O)N[C@@H](C)C(=O)N[C@H]1C(=O)N[C@@H](C)C(=O)N[C@@H](C(C)C)C(=O)N[C@H](C(=O)N[C@@H](CC(N)=O)C(=O)N[C@@H](Cc2c[nH]cn2)C(=O)N[C@@H](CCCNC(=N)N)C(=O)O)CS[C@H]1C [GalM92]
efficacy via GalR2 compared with GalWtb, in words [2]: comparable efficacy via GalR2 like GalWtb

Now from value to molecule:

preference for stimulating GalR2 (over GalR1), in words [1]: preference for stimulating GalR2
SMILES: CC(C)C[C@H](NC(=O)[C@H](CC(C)C)NC(=O)[C@H](Cc1ccc(O)cc1)NC(=O)CNC(=O)[C@H](C)NC(=O)[C@H](C)NC(=O)[C@H](CC(N)=O)NC(=O)[C@H](CC(C)C)NC(=O)[C@H](CC(N)=O)NC(=O)[C@H](Cc1c[nH]c2ccccc12)NC(=O)[C@@H]1CCC(=O)N1)C(=O)N[C@@H](C)C(=O)N[C@H]1C(=O)N[C@@H](Cc2c[nH]cn2)C(=O)N[C@@H](C)C(=O)N[C@H](C(=O)NCC(=O)O)CS[C@H]1C [GalM89b]

preference for stimulating GalR2 (over GalR1), in words [1]: GalR2-specific
SMILES: CC(C)C[C@H](NC(=O)[C@H](CC(C)C)NC(=O)[C@H](Cc1ccc(O)cc1)NC(=O)CNC(=O)[C@H](C)NC(=O)[C@H](C)NC(=O)[C@H](CC(N)=O)NC(=O)[C@H](CC(C)C)NC(=O)[C@H](CC(N)=O)NC(=O)[C@H](Cc1c[nH]c2ccccc12)NC(=O)[C@@H]1CCC(=O)N1)C(=O)NCC(=O)N[C@@H](C)C(=O)N[C@H]1C(=O)N[C@@H](C)C(=O)N[C@@H](C(C)C)C(=O)N[C@H](C(=O)N[C@@H](CC(N)=O)C(=O)N[C@@H](Cc2c[nH]cn2)C(=O)O)CS[C@H]1C [GalM54tr]

preference for stimulating GalR2 (over GalR1), in words [1]: preference for stimulating GalR2
SMILES: CC(C)C[C@H](NC(=O)[C@H](CC(C)C)NC(=O)[C@H](Cc1ccc(O)cc1)NC(=O)CNC(=O)[C@H](C)NC(=O)[C@H](C)NC(=O)[C@H](CC(N)=O)NC(=O)[C@H](CC(C)C)NC(=O)[C@H](CC(N)=O)NC(=O)[C@H](Cc1c[nH]c2ccccc12)NC(=O)[C@@H]1CCC(=O)N1)C(=O)NCC(=O)N1CCC[C@H]1C(=O)N[C@@H](Cc1c[nH]cn1)C(=O)N[C@@H](C)C(=O)N[C@H]1C(=O)NCC(=O)N[C@@H](CC(N)=O)C(=O)N[C@H](C(=O)N[C@@H](CCCNC(=N)N)C(=O)O)CS[C@H]1C [GalM74b]

activity, in words [1]: low activity
SMILES: CC(C)C[C@@H]1NC(=O)[C@H](CC(C)C)NC(=O)[C@H](Cc2ccc(O)cc2)NC(=O)[C@H](NC(=O)[C@H](C)NC(=O)[C@H](C)NC(=O)[C@H](CC(N)=O)NC(=O)[C@H](CC(C)C)NC(=O)[C@H](CC(N)=O)NC(=O)[C@H](Cc2c[nH]c3ccccc23)NC(=O)[C@@H]2CCC(=O)N2)CSC[C@@H](C(=O)O)NC1=O [GalM82]

preference for stimulating GalR2 (over GalR1), in words [1]: preference for stimulating GalR2
SMILES: CC(C)C[C@H](NC(=O)[C@H](CC(C)C)NC(=O)[C@H](Cc1ccc(O)cc1)NC(=O)CNC(=O)[C@H](C)NC(=O)[C@H](C)NC(=O)[C@H](CC(N)=O)NC(=O)[C@H](CC(C)C)NC(=O)[C@H](CC(N)=O)NC(=O)[C@H](Cc1c[nH]c2ccccc12)NC(=O)[C@@H]1CCC(=O)N1)C(=O)NCC(=O)N1CCC[C@H]1C(=O)N[C@H]1C(=O)N[C@@H](C)C(=O)N[C@@H](C(C)C)C(=O)N[C@H](C(=O)O)CS[C@H]1C [GalM87]

Ratio EC50s relative to Gal-(1-15), GalR2 Ca efflux [2]: 248
SMILES: CC(C)C[C@@H]1NC(=O)[C@H](CC(C)C)NC(=O)[C@H](Cc2ccc(O)cc2)NC(=O)C(NC(=O)[C@H](C)NC(=O)[C@H](C)NC(=O)[C@H](CC(N)=O)NC(=O)[C@H](CC(C)C)NC(=O)[C@@H](NC(=O)[C@H](Cc2c[nH]c3ccccc23)NC(=O)[C@@H]2CCC(=O)N2)[C@@H](C)O)CSCC(C(=O)O)NC1=O (single isomer, unassigned) [4179 C, pEWTLNAAlanYLLlan]

activity, in words [1]: retained some activity
SMILES: CC(C)C[C@@H]1NC(=O)[C@H](Cc2ccc(O)cc2)NC(=O)C(NC(=O)[C@H](C)NC(=O)[C@H](C)NC(=O)[C@H](CC(N)=O)NC(=O)[C@H](CC(C)C)NC(=O)[C@H](CC(N)=O)NC(=O)[C@H](Cc2c[nH]c3ccccc23)NC(=O)CN)CSC[C@@H](C(=O)NCC(=O)N2CCC[C@H]2C(=O)N[C@@H](Cc2c[nH]cn2)C(=O)N[C@@H](C)C(=O)N[C@H](C(=O)NCC(=O)N[C@@H](CC(N)=O)C(=O)N[C@@H](Cc2c[nH]cn2)C(=O)N[C@@H](CCCNC(=N)N)C(=O)O)C(C)C)NC(=O)[C@H](CC(C)C)NC1=O (stereo partly drawn) [GalM73]
